This is an account of results in patent US20130158075A1, “HETEROCYCLIC COMPOUNDS AS DGAT1 INHIBITORS” (PIRAMAL ENTERPRISES LIMITED, priority 2010, published 2013).

Bounds are passed on as bounds.

In one experiment the target is T1, hDGAT1 (Homo sapiens, UniProt O75907).
T1 construct: made in house; host or cells: Sf9 insect cells (baculovirus); microsomal fraction
T1 sequence (O75907 1-488): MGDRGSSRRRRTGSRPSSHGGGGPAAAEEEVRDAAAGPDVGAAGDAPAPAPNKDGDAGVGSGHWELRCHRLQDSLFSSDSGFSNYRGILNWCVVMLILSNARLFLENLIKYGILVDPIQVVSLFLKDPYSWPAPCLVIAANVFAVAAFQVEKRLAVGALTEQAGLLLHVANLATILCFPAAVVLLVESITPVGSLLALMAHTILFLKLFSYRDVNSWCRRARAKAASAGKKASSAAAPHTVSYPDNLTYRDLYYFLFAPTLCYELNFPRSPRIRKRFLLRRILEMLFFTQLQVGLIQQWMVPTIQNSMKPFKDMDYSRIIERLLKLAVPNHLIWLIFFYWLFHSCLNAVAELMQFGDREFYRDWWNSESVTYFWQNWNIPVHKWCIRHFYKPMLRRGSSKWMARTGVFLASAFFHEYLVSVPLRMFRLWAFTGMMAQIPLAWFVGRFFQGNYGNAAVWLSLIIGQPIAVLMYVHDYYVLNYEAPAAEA
Kind of experiment: In-vitro DGAT1 assay with hDGAT1 microsomes from Sf9 cells (14C oleoyl CoA, scintillation counting). It is filed as biochemical. As to conditions: at 1 μM. As for the experimental part:
Sf9 cells were grown in T25 flasks containing Graces's Insect media with 10% FBS with antibiotic (100 units/mL penicillin, 100 μg/mL streptomycin sulphate, 0.25 μg/mL Amptotericin B as Fungizone) grown in a 27° C. incubator.
hDGAT10RF expression clone (RZPDo839C09146 in pDEST vector) was obtained from RZPD, German Science Center for Genomes research, Germany. hDGAT1 bacmid DNA was obtained by transformation of the hDGAT1 expression clone into DH10Bac E. coli competent cells. Approximately 1 μg of hDGAT1 bacmid DNA was infected into Sf9 cells with Cellfectin (Invitrogen) reagent. Following infection, Sf9 cells were incubated at 27° C. for 30 min. Five hours after infection, the media was replaced with growth media containing antibiotics (100 units/mL penicillin, 100 μg/mL streptomycin sulphate, 0.25 μg/mL Amptotericin B as Fungizone) and incubated at 27° C. for 72 h. The supernatant containing the virus was centrifuged at 1500×g for 5 min, passed through 0.22 μm filter, and subsequently stored at 4° C. The virus was further amplified three more times by re-infection of Sf9 cells and the viral titer was determined by plaque assay.
Sf9 cells were seeded in spinner flasks on day 0 at a cell density of 1×10^6 and infected on day 1 with hDGAT1 baculovirus at a multiplicity of infection (MOI) of 5 and a cell density of 2×10^6. On day 3 (or 66-72 h), cells were harvested and centrifuged at 2500×g for 10 min. Pellet was resuspended in lysis buffer (100 mM sucrose, 50 mM KCl, 40 mM KH2PO4, 30 mM EDTA, pH 7.2) and passed through 21-gauge needle approximately 10 times. The mixture was centrifuged at 12,000 rpm in a Sigma 12158-H rotor at 4° C. for 30 min. The supernatant was subjected to centrifugation at 35,000 rpm in a Beckman Ti-45 rotor at 4° C. for 1 h. The resultant pellet containing the microsomes wasere resuspended overnight in 1 mL of lysis buffer and total protein concentration was estimated using Bradford Reagent. Microsomes were aliquoted and stored at −80° C.
Frozen aliquots of hDGAT1 containing microsomes were thawed (5-10 mg/mL total protein) on ice and diluted to a working stock of 1 mg/mL with DGAT Assay Buffer (DAB). The DGAT reaction assay was performed by following the procedure described in U.S. Pat. No. 6,607,893 with some modifications that are described below.
1 mL stock solution of DGAT1 substrate mixture contains 5.6 μL of ^14C oleoyl CoA (16.8 nCi) and […] of 1,2-dioleoyl-sn-glycerol (1228.5 μM) 1,2-dioleoyl-sn-glycerol stock (19.5 mM) was prepared by dissolving 25 mg of 1,2-dioleoyl-sn-glycerol (Sigma, US) in 2060 μL of acetone.
The assay was performed in duplicates in a reaction volume of 100 μL.
The reaction was started by the addition of 2.5 μL of 1 mg/mL of microsomes (iv) to the mixture of (i), (ii) and (iii), and incubated at 37° C. for 10 min. The reaction was stopped by the addition of 300 μL of Alkaline Ethanol Stop Solution Mix [AESSM; 12.5% of 100% non-denatured ethanol, 10% deionized water, 2.5% 1N NaOH, 75% stop solution (78.4% isopropanol, 19.6% n-heptane, 2% deionized water)] followed by addition of 600 μL of n-heptane. The mixture was vortexed and the triglycerides formed were extracted into the organic heptane phase. 250 μL of the heptane phase was added into 4 mL scintillation cocktail (66.72% toluene, 33.3% TritonX-100, 0.5% PPO, 0.02% POPOP) and counted on a liquid scintillation counter for 1 min. Data was collected and plotted as a function of concentration in nM versus percentage inhibition of hDGAT1 by the compounds of present invention.
Consider `O=C(Nc1ccc(-c2noc([C@H]3CC[C@H](C(=O)O)CC3)n2)cc1)c1ccc(OC(F)(F)F)cc1` [Example 233, (1r,4r)-4-(3-(4-(4-(Trifluoromethoxy)benzamido)phenyl)-1,2,4-oxadiazol-5-yl)cyclohexanecarboxylic acid], for which the “Percentage inhibition of hDGAT1” value is recorded as “+ (20-50% Inhibition)”.
Consider `Cc1ccc(Cl)cc1NC(=O)Nc1ccc(-c2cnc(C3CCC(C(=O)O)CC3)s2)cc1` (centres unmarked) [Example 164], for which the “Percentage inhibition of hDGAT1” value is recorded as “++ (>50 % Inhibition)”.
Consider `CC(C)(CCc1ncc(-c2ccc(NC(=O)Nc3cc(F)c(F)c(F)c3)cc2)s1)C(=O)[O-].[Na+]` [Example 255A, Sodium salt of 2,2-dimethyl-4-(5-(4-(3-(3,4,5-trifluorophenyl)ureido)phenyl)thiazol-2-yl)butanoate], for which the “Percentage inhibition of hDGAT1” value is on record as “++ (>50 % Inhibition)”.

The experiment is the same for the next values; noted with them: read-out: Percentage inhibition of hDGAT1.
Regarding `O=C(Nc1ccc(-c2cnc(CNS(=O)(=O)C(F)(F)F)s2)cc1)Nc1c(F)cc(F)cc1F` [Example 547, 1,1,1-Trifluoro-N-((5-(4-(3-(2,4,6-trifluorophenyl)ureido)phenyl)thiazol-2-yl)methyl)methanesulfonamide], the inhibition (as a rule, the share of the control response that was lost under treatment) at 1 µM is greater than 50%.
`CS(=O)(=O)N1CCC(c2ncc(-c3ccc(NC(=O)Nc4c(F)cc(F)cc4F)cc3)s2)CC1` [Example 493, 1-(4-(2-(1-(Methylsulfonyl)piperidin-4-yl)thiazol-5-yl)phenyl)-3-(2,4,6-trifluorophenyl)urea]: the inhibition at 1 µM lay within 20 to 50%.
Turning to `O=C(Nc1ccc(-c2cnc(C34CC5CC(CC(C(=O)O)(C5)C3)C4)s2)cc1)Nc1c(F)cccc1F` [Example 506, 3-(5-(4-(3-(2,6-Difluorophenyl)ureido)phenyl)thiazol-2-yl)adamantane-1-carboxylic acid], the inhibition at 1 µM is greater than 50%.
As to `O=C(Nc1ccc(-c2cnc(CNS(=O)(=O)C(F)(F)F)s2)cc1)Nc1cc(F)c(F)cc1F` [Example 546, 1,1,1-Trifluoro-N-((5-(4-(3-(2,4,5-trifluorophenyl)ureido)phenyl)thiazol-2-yl)methyl)methanesulfonamide], the inhibition at 1 µM was greater than 50%.
Turning to `CC(C)(O)C1CCC(c2ncc(-c3ccc(NC(=O)Nc4ccc(F)cc4F)cc3)s2)CC1` (centres unmarked) [Example 406, 1-(2,4-Difluorophenyl)-3-(4-(2-(4-(2-hydroxypropan-2-yl)cyclohexyl)thiazol-5-yl)phenyl)urea], the inhibition at 1 µM was greater than 50%.
On to `O=C(O)CCc1ncc(-c2ccc(NC(=O)Nc3cccc(C(F)(F)F)c3)cc2)s1` [Example 7, 3-(5-(4-(3-(3-(Trifluoromethyl)phenyl)ureido)phenyl)thiazol-2-yl)propanoic acid], for which the inhibition at 1 µM was greater than 50%.
Regarding `O=C(Nc1ccc(-c2cnc(CCNS(=O)(=O)C(F)(F)F)s2)cc1)c1nc(-c2ccccc2)oc1C(F)(F)F` [Example 533, 2-Phenyl-5-(trifluoromethyl)-N-(4-(2-(2-(trifluoromethylsulfonamido)ethyl)thiazol-5-yl)phenyl)oxazole-4-carboxamide], the inhibition at 1 µM was greater than 50%.
For `O=C(O)CC1CCC(c2ncc(-c3ccc(NC(=S)Nc4ccccc4F)cc3)s2)CC1` (centres unmarked) [Example 374, 2-(4-(5-(4-(3-(2-Fluorophenyl)thioureido)phenyl)thiazol-2-yl)cyclohexyl)acetic acid], the inhibition at 1 µM was greater than 50%.
Take `Cc1noc(CC2CCC(c3ncc(-c4ccc(NC(=O)Nc5cc(F)c(F)cc5F)cc4)s3)CC2)n1` (centres unmarked) [Example 393, 1-(4-(2-(4-((3-Methyl-1,2,4-oxadiazol-5-yl)methyl)cyclohexyl)thiazol-5-yl)phenyl)-3-(2,4,5-trifluorophenyl)urea]: the inhibition at 1 µM was greater than 50%.
With `CC(C)(CCc1ncc(-c2ccc(NC(=O)Nc3ccccc3Cl)cc2)s1)C(=O)NS(=O)(=O)C(F)(F)F` [Example 579, 4-(5-(4-(3-(2-Chlorophenyl)ureido)phenyl)thiazol-2-yl)-2,2-dimethyl-N-((trifluoromethyl)sulfonyl)butanamide], the inhibition at 1 µM was greater than 50%.
For the compound `O=S(=O)(Nc1ccc(-c2cnc(CNS(=O)(=O)C(F)(F)F)s2)cc1)c1ccccc1` [Example 553, N-(4-(2-((Trifluoromethylsulfonamido)methyl)thiazol-5-yl)phenyl)benzene sulfonamide], the inhibition at 1 µM lay within 20 to 50%.
As to `CC(C)(O)C1CCC(c2ncc(-c3ccc(NC(=O)Nc4cc(F)cc(F)c4)cc3)s2)CC1` (centres unmarked) [Example 405, 1-(3,5-Difluorophenyl)-3-(4-(2-(4-(2-hydroxypropan-2-yl)cyclohexyl)thiazol-5-yl)phenyl)urea], the inhibition at 1 µM is greater than 50%.
Turning to `O=C(Nc1ccc(-c2cnc(C3CCC(C(=O)O)CC3)s2)cc1)Nc1ccccc1Cl` (centres unmarked) [Example 188, 4-(5-(4-(3-(2-Chlorophenyl)ureido)phenyl)thiazol-2-yl)cyclohexane carboxylic acid], the inhibition at 1 µM was greater than 50%.
In the case of `COCCNC(=O)Nc1ccc(-c2cnc(CCC(C)(C)C(=O)O)s2)cc1` [Example 249, 4-(5-(4-(3-(2-methoxyethyl)ureido)phenyl)thiazol-2-yl)-2,2-dimethylbutanoic acid], the inhibition at 1 µM lay within 20 to 50%.
Still for that read-out and setting: for `CC(C)(CCc1ncc(-c2ccc(NC(=O)Nc3cc(F)cc(F)c3)cc2)s1)C(=O)O` [Example 235, 4-(5-(4-(3-(3,5-Difluorophenyl)ureido)phenyl)thiazol-2-yl)-2,2-dimethyl butanoic acid] the value was greater than 50%; for `CC(=O)NC(=O)CC1CCC(c2ncc(-c3ccc(NC(=O)Nc4cc(F)c(F)cc4F)cc3)s2)CC1` (centres unmarked) [Example 402, N-Acetyl-2-(4-(5-(4-(3-(2,4,5-trifluorophenyl)ureido)phenyl)thiazol-2-yl)cyclohexyl)acetamide], greater than 50%; for `O=C(O)CN1CCC(c2ncc(-c3ccc(NC(=O)Nc4ccc(F)c(F)c4F)cc3)s2)CC1` [Example 439, 2-(4-(5-(4-(3-(2,3,4-Trifluorophenyl)ureido)phenyl)thiazol-2-yl)piperidin-1-yl)acetic acid], 20 to 50%.
On to `O=C(O)CN1CCC(c2ncc(-c3ccc(NC(=O)Nc4ccccc4Cl)cc3)s2)CC1` [Example 429, 2-(4-(5-(4-(3-(2-Chlorophenyl)ureido)phenyl)thiazol-2-yl)piperidin-1-yl)acetic acid], for which the inhibition at 1 µM was greater than 50%.
On to `CC(C)(C)c1ccc(C(=O)Nc2ccc(-c3cnc(C4CCC(C(=O)O)CC4)s3)cc2)cc1` (centres unmarked) [Example 194, 4-(5-(4-(4-t-Butylbenzamido)phenyl)thiazol-2-yl)cyclohexanecarboxylic acid], for which the inhibition at 1 µM was greater than 50%.
In the case of `COc1ccc(S(=O)(=O)Nc2ccc(-c3cnc(CCCC(=O)O)s3)cc2)c(OC)c1` [Example 63, 4-(5-(4-(2,4-Dimethoxyphenylsulfonamido)phenyl)thiazol-2-yl)butanoic acid], the inhibition at 1 µM fell in the range of 20 to 50%.
